Assay results from patent publication US6413782B1, “Methods of manufacturing high-throughput screening systems” (priority 1996, dated 2002).

Molecular target: β-galactosidase (Escherichia coli, UniProt P00722)
Assay: Enzyme inhibitor screen in planar chip format (continuous flow, fluorogenic substrate FDG)
Format: biochemical
Settings: IPTG 200 mM in inhibitor well; β-Galactosidase 180 U/ml; substrate FDG 400 μM; 20 mM Tris pH 8.5; versus buffer control
Method: The numbers adjacent the channels represent the lengths of each channel in millimeters. Two voltage states were applied to the ports of the chip. […] A control experiment was also run in which buffer was placed into the inhibitor well.
Enzyme: β-Galactosidase (180 U/ml in 50 mM Tris/ 300 μg/ml BSA
Substrate: Fluorescein-digalactoside (FDG) 400 μM
Buffer: 20 mM Tris, pH 8.5
Enzyme and substrate were continually pumped through the main channel from their respective ports under both voltage states. Inhibitor or Buffer were delivered into the main channel alternately from their respective wells by alternating between voltage state 1 and voltage state 2. When no inhibitor was present at the detection end of the main channel, a base line level of fluorescent product was produced. […] FIG. 9B a superposition of the two data segments from FIG. 9A, directly comparing the inhibitor data with control (buffer) data.

Chain of β-galactosidase (P00722 2-1024): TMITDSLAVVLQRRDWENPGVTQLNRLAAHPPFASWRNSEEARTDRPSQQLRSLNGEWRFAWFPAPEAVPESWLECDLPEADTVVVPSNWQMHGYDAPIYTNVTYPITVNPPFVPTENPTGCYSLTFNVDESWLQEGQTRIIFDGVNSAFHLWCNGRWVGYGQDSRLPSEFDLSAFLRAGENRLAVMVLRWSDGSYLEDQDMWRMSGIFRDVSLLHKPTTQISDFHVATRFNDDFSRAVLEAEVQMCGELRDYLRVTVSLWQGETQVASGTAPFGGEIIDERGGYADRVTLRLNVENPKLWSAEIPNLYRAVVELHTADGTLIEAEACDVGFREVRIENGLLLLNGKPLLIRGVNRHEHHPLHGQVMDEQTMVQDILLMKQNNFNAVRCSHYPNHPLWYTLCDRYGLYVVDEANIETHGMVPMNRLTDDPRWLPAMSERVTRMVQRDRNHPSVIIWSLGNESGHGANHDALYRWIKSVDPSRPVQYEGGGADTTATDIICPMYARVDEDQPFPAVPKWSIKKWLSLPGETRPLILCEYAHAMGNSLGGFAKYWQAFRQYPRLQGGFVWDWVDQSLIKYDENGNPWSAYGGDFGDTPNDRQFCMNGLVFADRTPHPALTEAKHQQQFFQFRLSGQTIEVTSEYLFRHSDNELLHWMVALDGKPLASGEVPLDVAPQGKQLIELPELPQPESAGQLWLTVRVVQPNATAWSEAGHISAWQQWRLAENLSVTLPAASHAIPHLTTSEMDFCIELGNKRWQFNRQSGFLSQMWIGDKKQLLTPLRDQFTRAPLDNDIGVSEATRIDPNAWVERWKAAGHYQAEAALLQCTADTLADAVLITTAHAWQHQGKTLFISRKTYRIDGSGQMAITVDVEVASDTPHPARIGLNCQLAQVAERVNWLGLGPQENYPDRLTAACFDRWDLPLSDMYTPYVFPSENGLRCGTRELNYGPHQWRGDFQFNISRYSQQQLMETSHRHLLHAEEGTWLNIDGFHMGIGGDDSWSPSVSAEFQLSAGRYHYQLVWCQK

## CC(C)S[C@@H]1O[C@H](CO)[C@H](O)[C@H](O)[C@H]1O [IPTG]
  fluorescent signal upon introduction of inhibitor (inhibition of the enzyme/substrate interaction): greatly reduced
